In patent US20240158393A1, “PYRIDONE COMPOUNDS AND METHODS OF USE” (Exelixis, Inc., priority 2021, published 2024):

Tests used:
Human Mer = molecular target: T1, Human Mer (Homo sapiens, UniProt Q12866); test: Human Mer kinase assay (33P radiometric / HTRF KinEase); assay type: biochemical; conditions: protocols of Examples C-1 and/or C-2
T1 construct: Human Mer (residues R557-E882 with H628Q and R794A, 0.7 nM); purchased Eurofins Pharma Discovery Services UK Limited (KinaseProfiler service)
T1 sequence (Q12866 557-882 limits assumed): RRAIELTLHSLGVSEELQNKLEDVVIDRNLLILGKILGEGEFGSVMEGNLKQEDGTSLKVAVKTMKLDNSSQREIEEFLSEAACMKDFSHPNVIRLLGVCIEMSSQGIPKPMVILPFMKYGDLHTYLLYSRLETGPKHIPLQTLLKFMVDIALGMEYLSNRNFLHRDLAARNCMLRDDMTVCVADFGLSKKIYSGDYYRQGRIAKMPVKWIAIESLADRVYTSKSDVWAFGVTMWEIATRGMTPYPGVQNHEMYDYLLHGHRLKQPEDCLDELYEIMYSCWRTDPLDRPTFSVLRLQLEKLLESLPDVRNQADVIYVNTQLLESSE
In short: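 Two formats yield IC50 values. HTRF KinEase used MER residues 528-999 with ATP at Km (40 μM), 1 μM biotin-peptide, 60 min RT, […], 10 concentrations. 33P filter assay used 0.7 nM Mer R557-E882 (H628Q/R794A), 10 μM ATP, 250 μM peptide, 40 min RT, top 1 μM.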

Human KDR = molecular target: T2, Human KDR (Homo sapiens, UniProt P35968); test: Human KDR kinase assay (33P radiometric / HTRF KinEase); assay type: biochemical; conditions: protocols of Examples B-1 and/or B-2
T2 construct: Human KDR (residues K790-V1356, 55 nM); purchased Eurofins Pharma Discovery Services UK Limited (KinaseProfiler, B-1) and/or CarnaBio (B-2)
In short: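 Radiometric: KDR K790-V1356 (55 nM), MOPS pH 7.0, myelin basic protein, 10 μM [γ-33P]ATP, 40 min at room temperature, filter-bound 33P counted; nine half-log doses, top 1 μM. HTRF: KDR 790-1356, 1 μM biotinylated peptide, ATP at Km (4.0 μM), 40 min, 10 doses. IC50 from logistic fits.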

T2 sequence (P35968 790-1356): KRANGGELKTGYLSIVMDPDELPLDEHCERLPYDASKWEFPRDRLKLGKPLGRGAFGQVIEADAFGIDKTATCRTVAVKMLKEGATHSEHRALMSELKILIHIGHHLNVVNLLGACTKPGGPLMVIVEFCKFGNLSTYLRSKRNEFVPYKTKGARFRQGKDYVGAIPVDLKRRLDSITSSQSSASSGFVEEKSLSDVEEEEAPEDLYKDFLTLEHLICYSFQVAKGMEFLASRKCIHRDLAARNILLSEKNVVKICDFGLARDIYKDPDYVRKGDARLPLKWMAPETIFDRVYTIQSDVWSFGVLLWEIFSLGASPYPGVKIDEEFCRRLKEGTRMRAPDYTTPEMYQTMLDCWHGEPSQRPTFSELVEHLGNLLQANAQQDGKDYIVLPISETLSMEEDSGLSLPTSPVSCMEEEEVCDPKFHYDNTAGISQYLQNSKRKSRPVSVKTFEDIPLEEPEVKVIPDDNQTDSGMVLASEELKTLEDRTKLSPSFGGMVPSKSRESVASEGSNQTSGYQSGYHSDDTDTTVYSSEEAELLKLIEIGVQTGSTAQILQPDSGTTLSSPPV

Row | IC50 (Human Mer) [nM] | IC50 (Human KDR) [nM] | SMILES
1 | > 300 | > 300 | COc1cc2nccc(Oc3ccc(NC(=O)c4c(C)n(C)c(C)c(C5CC5)c4=O)cc3)c2nc1OC [Compound 48, 5-Cyclopropyl-N-[4-[(6,7-dimethoxy-1,5-naphthyridin-4-yl)oxy]phenyl]-1,2,6-trimethyl-4-oxopyridine-3-carboxamide]
2 | ≤ 100 | ≤ 100 | COc1cc2nccc(Oc3cc(F)c(NC(=O)c4c(C)nc(C)c(C(C)C)c4O)cc3F)c2nc1OC [Compound 10, N-[4-[(6,7-Dimethoxy-1,5-naphthyridin-4-yl)oxy]-2,5-difluorophenyl]-4-hydroxy-2,6-dimethyl-5-propan-2-ylpyridine-3-carboxamide]
3 | > 300 | > 300 | COc1cc2nccc(Oc3ccc(NC(=O)c4c(C)nc(C)c(C(N)=O)c4O)cc3F)c2nc1OC [Compound 84, 3-N-[4-[(6,7-Dimethoxy-1,5-naphthyridin-4-yl)oxy]-3-fluorophenyl]-4-hydroxy-2,6-dimethylpyridine-3,5-dicarboxamide]
4 | ≤ 100 | ≤ 100 | C=C(C)c1c(C)nc(C)c(C(=O)Nc2cc(F)c(Oc3ccnc4cc(OC)c(OC)nc34)cc2F)c1O [Compound 6, N-[4-[(6,7-Dimethoxy-1,5-naphthyridin-4-yl)oxy]-2,5-difluorophenyl]-4-hydroxy-2,6-dimethyl-5-prop-1-en-2-ylpyridine-3-carboxamide]
5 | ≤ 100 | ≤ 100 | COCCOc1cc2nccc(Oc3ccc(NC(=O)c4cnc(C)c(C5=CCCC5)c4O)cc3F)c2nc1OC [Compound 33, 5-(Cyclopenten-1-yl)-N-[3-fluoro-4-[[6-methoxy-7-(2-methoxyethoxy)-1,5-naphthyridin-4-yl]oxy]phenyl]-4-hydroxy-6-methylpyridine-3-carboxamide]
6 | ≤ 100 | ≤ 100 | COc1cc2nccc(Oc3ccc(NC(=O)c4cn(CCF)c(C)c(C5CCCC5)c4=O)cc3F)c2nc1OC [Compound 13, 5-Cyclopentyl-N-[4-[(6,7-dimethoxy-1,5-naphthyridin-4-yl)oxy]-3-fluorophenyl]-1-(2-fluoroethyl)-6-methyl-4-oxopyridine-3-carboxamide]
7 | ≤ 100 | ≤ 100 | COc1cc2nccc(Oc3ccc(NC(=O)c4cnc(C)c(C5=CCCC5)c4O)cc3)c2cc1OC [Compound 16, 5-(Cyclopenten-1-yl)-N-[4-(6,7-dimethoxyquinolin-4-yl)oxyphenyl]-4-hydroxy-6-methylpyridine-3-carboxamide]
8 | ≤ 100 | ≤ 100 | COc1cc2nccc(Oc3ccc(NC(=O)c4cnc(C)c(C5=CCCCC5)c4O)cc3)c2cc1OC [Compound 24, 5-(Cyclohexen-1-yl)-N-[4-(6,7-dimethoxyquinolin-4-yl)oxyphenyl]-4-hydroxy-6-methylpyridine-3-carboxamide]
9 | > 300 | > 300 | COc1cnc2c(Oc3ccc(NC(=O)c4c(C)n(C)c(C)c(C#N)c4=O)cc3F)ccnc2c1 [Compound 81, 5-Cyano-N-[3-fluoro-4-[(7-methoxy-1,5-naphthyridin-4-yl)oxy]phenyl]-1,2,6-trimethyl-4-oxopyridine-3-carboxamide]
10 | ≤ 100 | ≤ 100 | COCCOc1cc2nccc(Oc3ccc(NC(=O)c4cnc(C)c(C5=CCOCC5)c4O)cc3F)c2nc1OC [Compound 35, 5-(3,6-Dihydro-2H-pyran-4-yl)-N-[3-fluoro-4-[[6-methoxy-7-(2-methoxyethoxy)-1,5-naphthyridin-4-yl]oxy]phenyl]-4-hydroxy-6-methylpyridine-3-carboxamide]
11 | ≤ 100 | ≤ 100 | COc1cc2nccc(Oc3ccc(NC(=O)c4cn(CCF)c(C)c(C5=CCCC5)c4=O)cc3F)c2nc1OC [Compound 11, 5-(Cyclopenten-1-yl)-N-[4-[(6,7-dimethoxy-1,5-naphthyridin-4-yl)oxy]-3-fluorophenyl]-1-(2-fluoroethyl)-6-methyl-4-oxopyridine-3-carboxamide]
12 | ≤ 100 | 100 to 300 | COc1cc2nccc(Oc3ccc(NC(=O)c4c(C)ccn(C(C)C)c4=O)cc3F)c2nc1OC [Compound 38, N-[4-[(6,7-Dimethoxy-1,5-naphthyridin-4-yl)oxy]-3-fluorophenyl]-4-methyl-2-oxo-1-propan-2-ylpyridine-3-carboxamide]
13 | ≤ 100 | > 300 | COc1cc2nccc(Oc3ccc(NC(=O)c4c5n(cc(C6=CCCCC6)c4=O)CCOC5)cc3)c2nc1OC [Compound G1-5, 7-(Cyclohexen-1-yl)-N-[4-[(6,7-dimethoxy-1,5-naphthyridin-4-yl)oxy]phenyl]-8-oxo-3,4-dihydro-1H-pyrido[2,1-c][1,4]oxazine-9-carboxamide]
14 | ≤ 100 | 100 to 300 | COc1cc2nccc(Oc3ccc(NC(=O)c4c(C)c(Br)c(C)n(C5CCCC5)c4=O)cc3F)c2nc1OC [Compound 22, 5-Bromo-1-cyclopentyl-N-[4-[(6,7-dimethoxy-1,5-naphthyridin-4-yl)oxy]-3-fluorophenyl]-4,6-dimethyl-2-oxopyridine-3-carboxamide]
15 | ≤ 100 | ≤ 100 | COc1cc2nccc(Oc3ccc(NC(=O)c4cn(C)c(C)c(C5=CCCC5)c4=O)cc3F)c2nc1OC [Compound 1, 5-(Cyclopenten-1-yl)-N-[4-[(6,7-dimethoxy-1,5-naphthyridin-4-yl)oxy]-3-fluorophenyl]-1,6-dimethyl-4-oxopyridine-3-carboxamide]
16 | ≤ 100 | 100 to 300 | C=C(C)n1c(C)cc(C)c(C(=O)Nc2ccc(Oc3ccnc4cc(OC)cnc34)c(F)c2)c1=O [Compound 21, N-[3-Fluoro-4-[(7-methoxy-1,5-naphthyridin-4-yl)oxy]phenyl]-4,6-dimethyl-2-oxo-1-prop-1-en-2-ylpyridine-3-carboxamide]
17 | ≤ 100 | ≤ 100 | COc1cc2nccc(Oc3ccc(NC(=O)c4cnc(C)c(C5=CCOCC5)c4O)cc3)c2cc1OC [Compound 17, 5-(3,6-Dihydro-2H-pyran-4-yl)-N-[4-(6,7-dimethoxyquinolin-4-yl)oxyphenyl]-4-hydroxy-6-methylpyridine-3-carboxamide]
18 | > 300 | > 300 | COCCOc1cc2nccc(Oc3cc(F)c(NC(=O)c4c(C)nc(C)c(C(N)=O)c4O)cc3F)c2nc1OC [Compound 86, 3-N-[2,5-Difluoro-4-[[6-methoxy-7-(2-methoxyethoxy)-1,5-naphthyridin-4-yl]oxy]phenyl]-4-hydroxy-2,6-dimethylpyridine-3,5-dicarboxamide]
19 | ≤ 100 | ≤ 100 | COc1cnc2c(Oc3ccc(NC(=O)c4cnc(C)c(C5=CCOCC5)c4O)cc3F)ccnc2c1 [Compound 1-4, 5-(3,6-Dihydro-2H-pyran-4-yl)-N-[3-fluoro-4-[(7-methoxy-1,5-naphthyridin-4-yl)oxy]phenyl]-4-hydroxy-6-methylpyridine-3-carboxamide]
20 | ≤ 100 | ≤ 100 | COc1cc2nccc(Oc3ccc(NC(=O)c4cnc(C)c(/C=C/CC(C)C)c4O)cc3F)c2nc1OC [Compound 28, N-[4-[(6,7-Dimethoxy-1,5-naphthyridin-4-yl)oxy]-3-fluorophenyl]-4-hydroxy-6-methyl-5-[(E)-4-methylpent-1-enyl]pyridine-3-carboxamide]
21 | ≤ 100 | ≤ 100 | COc1cc2nccc(Oc3ccc(NC(=O)c4cnc(C)c(C5=CCCCC5)c4O)cc3F)c2cc1OC [Compound 23, 5-(Cyclohexen-1-yl)-N-[4-(6,7-dimethoxyquinolin-4-yl)oxy-3-fluorophenyl]-4-hydroxy-6-methylpyridine-3-carboxamide]
22 | ≤ 100 | ≤ 100 | COc1ccc2nccc(Oc3ccc(NC(=O)c4cnc(C)c(C5=CCOCC5)c4O)cc3F)c2n1 [Compound 1-5, 5-(3,6-Dihydro-2H-pyran-4-yl)-N-[3-fluoro-4-[(6-methoxy-1,5-naphthyridin-4-yl)oxy]phenyl]-4-hydroxy-6-methylpyridine-3-carboxamide]
23 | ≤ 100 | ≤ 100 | COc1cnc2c(Oc3ccc(NC(=O)c4cnc(C)c(C5=CCCC5)c4O)cc3F)ccnc2c1 [Compound 1-9, 5-(Cyclopenten-1-yl)-N-[3-fluoro-4-[(7-methoxy-1,5-naphthyridin-4-yl)oxy]phenyl]-4-hydroxy-6-methylpyridine-3-carboxamide]
24 | ≤ 100 | > 300 | COc1cc2nccc(Oc3cc(F)c(NC(=O)c4c(C)n(C)c(C)c(C5CC5)c4=O)cc3F)c2nc1OC [Compound 47, 5-Cyclopropyl-N-[4-[(6,7-dimethoxy-1,5-naphthyridin-4-yl)oxy]-2,5-difluorophenyl]-1,2,6-trimethyl-4-oxopyridine-3-carboxamide]
25 | ≤ 100 | ≤ 100 | COCCOc1cc2nccc(Oc3ccc(NC(=O)c4cnc(C)c(/C=C/C5CCCC5)c4O)cc3F)c2nc1OC [Compound 36, 5-[(E)-2-Cyclopentylethenyl]-N-[3-fluoro-4-[[6-methoxy-7-(2-methoxyethoxy)-1,5-naphthyridin-4-yl]oxy]phenyl]-4-hydroxy-6-methylpyridine-3-carboxamide]
